Results as given in patent publication US7074824B2, “Pharmaceutical compositions containing beta-lapachone, or derivatives or analogs thereof, and methods of using same” (Arqule, Inc., priority 2001, dated 2006).
≈ marks a conversion by molar mass, not a printed value. Where two headings read alike, the source gives them in different places.

Assays:
[1] = Solubility of β-lapachone in aqueous HPBCD solutions (heated to 70° C., filtered, HPLC); format: physicochemical
Procedure: A β-lapachone/HPBCD solution was prepared without prior solubilization of the β-lapachone in ethanol solution. β-lapachone was combined with aqueous solutions of HPBCD in varying concentrations and the mixtures were heated to 70° C., then allowed to cool to room temperature. The cooled solutions were filtered (0.22μ), and the amount of the solubilized β-lapachone was measured by HPLC analysis.

[2] = Solubility of β-lapachone in common solvent systems used for intravenous delivery; format: physicochemical
Source text: β-lapachone, as well as its derivatives and analogs thereof (also referred to herein as the “active compounds”), are described in Li, C. J. et al., J. Biol. Chem., 1993. These active compounds can be incorporated into pharmaceutical compositions suitable for parenteral administration. Such compositions typically comprise the active compound and a pharmaceutically acceptable carrier, excipient, diluent or adjuvant. However, the low solubility of β-lapachone in most pharmaceutically acceptable solvents has been an obstacle to the development of a suitable formulation for parenteral and topical administration, particularly intravenous and cutaneous administration, respectively. Table 1 illustrates the limited solubility of β-lapachone in common solvent systems used for intravenous delivery of drugs. […] To achieve this plasma concentration, an intravenous formulation must have a β-lapachone concentration approaching 10 mg/ml and be able to be diluted 5–×10× with sterile fluids for intravenous administration, such as saline or D5W.
Various pharmaceutically acceptable solvent systems known to solubilize hydrophobic drug substances were evaluated with β-lapachone. […] However, none of these systems could be diluted 5× with sterile saline without significant precipitation of the β-lapachone from solution. In addition, most of these co-solvents and surfactants have their own toxicity and tolerability issues that need to be managed during high dose drug administration.

[3] = system: six human cancer cells lines; test: MTS growth inhibition assay, summary over all lines; format: cell-based; conditions: all six tumor cell lines; tested up to 20 μM
Procedure: (§1) A2780 and A2780/CP (ovarian); MCF-7 (breast); HT-29 (colon); BxPC-3 (pancreas); and A549 (lung). The human tumor cell lines (purchased from ATCC, Rockville, Md.) were cultured at 37° C. (5% CO2) in RPMI medium (RPMI; Nova Tech, Grand Island, N.Y.) containing 10% fetal bovine serum (FBS, Nova Tech). Aliquots of cells were seeded into each well of 96-well microtiter plates at a final concentration of 10^4 cells/well and incubated for 24 h prior to exposure to test compounds. […] The MTS assay is a colorimetric assay based upon the ability of viable cells to convert MTS, a novel tetrazolium compound and electron-coupling reagent, to a colored formazan product that is soluble in cell culture medium. The cell concentration is then determined by measuring the absorbance of the formazan product at 490 nm. Growth inhibition, expressed as IC50, is calculated relative to vehicle-treated control cells.

HT-29 = test: MTS growth inhibition assay; format: cell-based, human; conditions: Homo sapiens
Procedure: as §1, with “(5% CO2) in RPMI medium (RPMI;” left out

A2780CP = test: MTS growth inhibition assay; format: cell-based, human; conditions: Homo sapiens, A2780C/P
Procedure: as §1, with “(5% CO2) in RPMI medium (RPMI;” left out

A2780 = test: MTS growth inhibition assay; format: cell-based, human; conditions: Homo sapiens
Procedure: as §1, with “(5% CO2) in RPMI medium (RPMI;” left out

MCF-7 = test: MTS growth inhibition assay; format: cell-based, human; conditions: Homo sapiens
Procedure: as §1, with “(5% CO2) in RPMI medium (RPMI;” left out

BxPC-3 = test: MTS growth inhibition assay; format: cell-based, human; conditions: Homo sapiens
Procedure: as §1, with “(5% CO2) in RPMI medium (RPMI;” left out

A549 = test: MTS growth inhibition assay; format: cell-based, human; conditions: Homo sapiens
Procedure: as §1, with “(5% CO2) in RPMI medium (RPMI;” left out

CC1(C)CCC2=C(O1)c1ccccc1C(=O)C2=O [β-lapachone]
β-lapachone (highest conc.) ([1]; 10% HPBCD in water): 3.1 mg/mL
β-lapachone (highest conc.) ([1]; 20% HPBCD in water): 7.4 mg/mL
β-lapachone (highest conc.) ([1]; 30% HPBCD in water): 10.8 mg/mL
β-lapachone (highest conc.) ([1]; 40% HPBCD in water): 15.8 mg/mL
solubility ([2]; EtOH 76% diluted 5X in 0.9% saline, aqueous with cosolvent or surfactant or cyclodextrin, EtOH 76%, diluted in 0.9% saline, read-out: β-lapachone Solubility, 5X dilution): 102 µg/mL (≈ 0.423 mM)
solubility ([2]; EtOH 76%, organic solvent or mixture, read-out: β-lapachone Solubility, Undiluted): 10700 µg/mL (≈ 44 mM)
solubility ([2]; PEG 400, organic solvent or mixture, read-out: β-lapachone Solubility, Undiluted): 11700 µg/mL (≈ 48.2 mM)
solubility ([2]; PEG 400 diluted 5X in 0.9% saline, aqueous with cosolvent or surfactant or cyclodextrin, PEG 400, diluted in 0.9% saline, read-out: β-lapachone Solubility, 5X dilution): 140 µg/mL (≈ 0.578 mM)
solubility ([2]; Poloxamer 20% diluted 5X in 0.9% saline, aqueous with cosolvent or surfactant or cyclodextrin, Poloxamer 20%, diluted in 0.9% saline, read-out: β-lapachone Solubility, 5X dilution): 33.1 µg/mL (≈ 0.137 mM)
solubility ([2]; Poloxamer 20%, aqueous with cosolvent or surfactant or cyclodextrin, read-out: β-lapachone Solubility, Undiluted): 2040 µg/mL (≈ 8.4 mM)
solubility ([2]; Povidone K12 20% diluted 5X in 0.9% saline, aqueous with cosolvent or surfactant or cyclodextrin, Povidone K12 20%, diluted in 0.9% saline, read-out: β-lapachone Solubility, 5X dilution): 31.3 µg/mL (≈ 0.129 mM)
solubility ([2]; Povidone K12 20%, aqueous with cosolvent or surfactant or cyclodextrin, read-out: β-lapachone Solubility, Undiluted): 1860 µg/mL (≈ 7.68 mM)
solubility ([2]; Povidone K17 20% diluted 5X in 0.9% saline, aqueous with cosolvent or surfactant or cyclodextrin, Povidone K17 20%, diluted in 0.9% saline, read-out: β-lapachone Solubility, 5X dilution): 31.2 µg/mL (≈ 0.129 mM)
solubility ([2]; Povidone K17 20%, aqueous with cosolvent or surfactant or cyclodextrin, read-out: β-lapachone Solubility, Undiluted): 1820 µg/mL (≈ 7.53 mM)
solubility ([2]; Propylene Glycol diluted 5X in 0.9% saline, aqueous with cosolvent or surfactant or cyclodextrin, Propylene Glycol, diluted in 0.9% saline, read-out: β-lapachone Solubility, 5X dilution): 95 µg/mL (≈ 0.392 mM)
solubility ([2]; Propylene Glycol, organic solvent or mixture, read-out: β-lapachone Solubility, Undiluted): 8780 µg/mL (≈ 36.2 mM)
solubility ([2]; Trappsol 20% diluted 5X in 0.9% saline, aqueous with cosolvent or surfactant or cyclodextrin, Trappsol 20%, diluted in 0.9% saline, read-out: β-lapachone Solubility, 5X dilution): 30 µg/mL (≈ 0.124 mM)
solubility ([2]; Trappsol 20%, aqueous with cosolvent or surfactant or cyclodextrin, read-out: β-lapachone Solubility, Undiluted): 1460 µg/mL (≈ 6.05 mM)
solubility ([2]; Tween 80, aqueous with cosolvent or surfactant or cyclodextrin, read-out: β-lapachone Solubility, Undiluted): 11200 µg/mL (≈ 46.1 mM)
solubility ([2]; Tween 80 diluted 5X in 0.9% saline, aqueous with cosolvent or surfactant or cyclodextrin, Tween 80, diluted in 0.9% saline, read-out: β-lapachone Solubility, 5X dilution): 1660 µg/mL (≈ 6.83 mM)
solubility ([2]; organic solvent or mixture, highest of all solvent systems, undiluted, read-out: maximum solubility in the solvents listed in Table 1): ~12000 µg/mL (≈ 49.5 mM)
growth inhibitory activity, verbal summary [3]: dose-dependent inhibitory effect
IC50 (HT-29; HT-29, read-out: Growth inhibitory activity (50% effective concentration, IC50), HT-29 colon, Exp 1): 5.37 µM
IC50 (HT-29; HT-29, read-out: Growth inhibitory activity (50% effective concentration, IC50), HT-29 colon, Exp 2): 11.4 µM
IC50 (HT-29; HT-29, read-out: Growth inhibitory activity (50% effective concentration, IC50), HT-29 colon, Exp 3): 9.89 µM
IC50 (HT-29; HT-29, read-out: Growth inhibitory activity (50% effective concentration, IC50), HT-29 colon, Mean ± SE of 3 experiments): 8.89 ± 1.82 µM
IC50 (A2780CP; read-out: Growth inhibitory activity (50% effective concentration, IC50), A2780CP (resistant) ovarian, Exp 1): 4.47 µM
IC50 (A2780CP; read-out: Growth inhibitory activity (50% effective concentration, IC50), A2780CP (resistant) ovarian, Exp 2): 1.61 µM
IC50 (A2780CP; read-out: Growth inhibitory activity (50% effective concentration, IC50), A2780CP (resistant) ovarian, Exp 3): 1.76 µM
IC50 (A2780CP; read-out: Growth inhibitory activity (50% effective concentration, IC50), A2780CP (resistant) ovarian, Mean ± SE of 3 experiments): 2.61 ± 0.93 µM
IC50 (A2780; A2780, read-out: Growth inhibitory activity (50% effective concentration, IC50), A2780 (sensitive) ovarian, Exp 1, 4 h treatment + 24 h drug-free): 2.11 µM
IC50 (A2780; A2780, read-out: Growth inhibitory activity (50% effective concentration, IC50), A2780 (sensitive) ovarian, Exp 2, 4 h treatment + 24 h drug-free): 3.99 µM
IC50 (A2780; A2780, read-out: Growth inhibitory activity (50% effective concentration, IC50), A2780 (sensitive) ovarian, Exp 3, 4 h treatment + 24 h drug-free): 0.876 µM
IC50 (A2780; A2780, read-out: Growth inhibitory activity (50% effective concentration, IC50), A2780 (sensitive) ovarian, Mean ± SE of 3 experiments): 2.32 ± 0.91 µM
IC50 (MCF-7; MCF7, read-out: Growth inhibitory activity (50% effective concentration, IC50), MCF-7 breast, Exp 1): 2.37 µM
IC50 (MCF-7; MCF7, read-out: Growth inhibitory activity (50% effective concentration, IC50), MCF-7 breast, Exp 2): 4.75 µM
IC50 (MCF-7; MCF7, read-out: Growth inhibitory activity (50% effective concentration, IC50), MCF-7 breast, Exp 3): 2.1 µM
IC50 (MCF-7; MCF7, read-out: Growth inhibitory activity (50% effective concentration, IC50), MCF-7 breast, Mean ± SE of 3 experiments): 3.07 ± 0.84 µM
IC50 (BxPC-3; BXPC-3, read-out: Growth inhibitory activity (50% effective concentration, IC50), BxPC-3 pancreas, Exp 1): 11.6 µM
IC50 (BxPC-3; BXPC-3, read-out: Growth inhibitory activity (50% effective concentration, IC50), BxPC-3 pancreas, Exp 2): 5.68 µM
IC50 (BxPC-3; BXPC-3, read-out: Growth inhibitory activity (50% effective concentration, IC50), BxPC-3 pancreas, Exp 3): 16.5 µM
IC50 (BxPC-3; BXPC-3, read-out: Growth inhibitory activity (50% effective concentration, IC50), BxPC-3 pancreas, Mean ± SE of 3 experiments): 11.3 ± 3.12 µM
IC50 (A549; A549, read-out: Growth inhibitory activity (50% effective concentration, IC50), A549 lung, Exp 1): 4.48 µM
IC50 (A549; A549, read-out: Growth inhibitory activity (50% effective concentration, IC50), A549 lung, Exp 2): 4.73 µM
IC50 (A549; A549, read-out: Growth inhibitory activity (50% effective concentration, IC50), A549 lung, Exp 3): 18.7 µM
IC50 (A549; A549, read-out: Growth inhibitory activity (50% effective concentration, IC50), A549 lung, Mean ± SE of 3 experiments): 9.3 ± 4.69 µM
